This note sets out measurements from patent US20240100027A1, “INHIBITION OF PROSTAGLANDIN DEGRADING ENZYME 15-PGDH TO IMPROVE JOINT STRUCTURE AND FUNCTION” (The Board of Trustees of the Leland Stanford Junior …, priority 2020, published 2024).

Assay [1] relates to chondrocytes in articular cartilage. Description: Transmission electron microscopy of chondrocytes in articular cartilage, mitochondria per cell. It counts as in vivo, mice. The method, then: Transmission electron microscopy (TEM). Knee joints were fixed in Karnovsky's fixative composed of 2% Glutaraldehyde (EMS Cat #16000) and 4% paraformaldehyde (EMS Cat #15700) in 0.1M Sodium Cacodylate (EMS Cat #12300) pH 7.4 for 4 hours at 4° C. Joints were washed with cold PBS 3× and then decalcified in 14% EDTA solution in PBS for 3 days at 4° C. Samples were washed with PBS and placed in cold/aqueous 1% osmium tetroxide (EMS Cat #19100) on a rotator and allowed to warm to room temperature (RT) for 1 hr. Samples were washed 3× with ultrafiltered water followed by staining in 1% uranyl acetate at RT for 2 hours. Samples were then dehydrated in a series of ethanol washes for 30 minutes each at RT beginning at 50%, 70% and finally moved to 4° C. overnight. They were placed in cold 95% EtOH and allowed to warm to RT, changed to 100% 2×, then Propylene Oxide (PO) for 15 min. Samples were infiltrated with EMbed-812 resin (EMS Cat #14120) mixed 1:2, 1:1, and 2:1 with PO for 2 hrs each with leaving samples in 2:1 resin to PO overnight rotating at RT in the hood. The samples were then placed into EMbed-812 for 2 to 4 hours then placed into molds w/labels and fresh resin, orientated and placed into 65° C. oven overnight. […]

For assay [2], the system named is human OA cartilage explants. Description: Human OA cartilage explants: Luminex cytokine panel on culture medium. In kind it is cell-based. Particulars: culture medium (secretome) of SW treated explants vs vehicle. An excerpt: (§1) Human cartilage tissue collection and treatment. Human cartilage samples were harvested from the surgical knee tissue discards of patients (n>5, age ranging from 55-75 years) undergoing total knee arthroplasty according to approved human subjects institutional review board protocols at Stanford University. Informed, written consent was given by the patients prior to the study. Cylindrical explants (4 mm diameter, 2-4 mm thickness) were extracted from the cartilage samples using standard biopsy punches (Integra, NJ. USA). Cartilage explants were cultured in DMEM-F12 medium supplemented with 10% fetal bovine serum (FBS), 25 μg mL^−1 ascorbic acid, 1× glutamine, and 1× antibiotic-antimycotic solution prior to experiments. To assess the effect of 15-PGDH inhibition, explants were treated with Vehicle (DMSO) or SW (10 uM) for 1 week prior to the assessment. Fresh media was added to the explants every other day.
Luminex Assay. This assay was performed at the Human Immune Monitoring Center at Stanford University. Human 76-plex or mouse 48-plex kits (eBioscience/Affymetrix) were used according to the manufacturer's recommendations. Briefly, antibody beads and samples were added to a 96-well plate and incubated at room temperature for 2 hours, followed by overnight incubation at 4° C. with shaking at 500 to 600 rpm. Plates were then washed in a w ash buffer, and biotinylated detection antibody was added for 2 hours at room temperature with shaking. Plate was washed, and streptavidin-phycoerythrin was added After 40 min incubation and washes, reading buffer was added to the wells Plates were read using a Luminex 200 instrument with a lower bound of 50 beads per sample per cytokine. Custom assay control beads were added to all wells. The raw MFI read-outs of all samples were used and analyzed by GraphPad prism.
(§2) Next, the effects of 15-PGDH inhibition in human OA cartilage were tested. […] Sulphated glycosaminoglycans (sGAG) were also independently quantified through measurements with the DMMB dye. […]

The test system of assay [3] is human OA cartilage explants. Description: Human OA cartilage explants: Ki67 immunostaining. In kind it is cell-based.
From the text: as §1
Cell cycle marker-Ki67 immunostaining. Human OA explants treated with vehicle and SW were fixed and embedded in OCT as described in previous section, 10 μm sections on poly-1-lysine-coated glass slides were obtained using a cryostat. Immunostaining was performed using a standard protocol. […]
as §2

The next assay concerns cartilage from aged mice. Description: RNA-seq, differential gene expression and Ingenuity Pathway Analysis of cartilage from aged mice treated systemically. It counts as in vivo.
[4] abbreviates: SW treated aged cartilage, almost to the levels of young cartilage.
[5] abbreviates: aged cartilage, SW vs vehicle, among 301 DEGs.

SMILES strings stand for the structures.

Description for cartilage from aged mice: Mice handling. […] Aged (24-28 mo.) mice C57BL/6 were obtained from the US National Institute on Aging (NIA) aged colony.
RNA extraction and library preparation from mouse joints for RNA seq. Knee joint microdissection was performed under a stereoscope to collect cartilage tissue by carefully eliminating any tendons, synovial membrane and meniscal residue and then shaving the cartilage tissue from the underlying bone (Smeriglio et al., 2020, Sci Transl. Med. 12:eaax2332). The isolated cartilage tissue was kept in RNA later (Ambion) and stored at −80° C. for later use. Cartilage tissue was homogenized in Trizol using a bullet blender (Next Advance), followed by RNA extraction and purification using RNeasy micro-kit (Qiagen). cDNA libraries were constructed from 10 ng total RNA using SMARTer stranded Total RNA-Seq kit v3 (Takara Bio). Libraries were sequenced to 25-30×10^6 150-bp paired end reads per sample on an Illumina NovaSeq platform (Novogene, CA).
Differential Gene Expression Analysis. For the RNA-seq analysis, pseudo aligner Salmon was used to quantify the expression of transcripts. Sequences were also aligned against the Mus musculus genome (mm9) using the STAR aligner. A counts matrix containing the number of counts for each gene and each sample was obtained. This matrix was analyzed by DESeq2 to calculate statistical analysis of significance of genes between samples. […] Functional analysis of differentially expressed genes was analyzed using Ingenuity Pathway Analysis (IPA) and DAVID bioinformatic tools.
To identify the downstream molecular pathways through which 15-PGDH may exert its effect on aged cartilage, transcriptomic analysis of vehicle and SW treated cartilage from aged mice (24 mo) was performed and compared to cartilage from young adult mice (3 mo) through RNA-seq.

Take `CCCC[S+]([O-])c1sc2nc(-c3cccs3)cc(-c3ccccc3)c2c1N` (stereo not drawn) [SW033291, 2-(butylsulfinyl)-4-phenyl-6-(thiophen-2-yl)thieno[2,3-b]pyridin-3-amine]: in assay [1] (aged cartilage, SW treated vs vehicle treated), the “number of mitochondria per cell (TEM images)” value was “significant increase”. For the same molecule, the “mitochondria per cell, quantification with Image J” value in assay [1] (aged chondrocytes, SW treatment, compared with young cartilage) is on record as “restoring the mitochondria number in aged chondrocytes to the level of young cartilage”. Also, in assay [2], the CCL5 level result is recorded as “significant reduction”, the GMCSF level result is given as “significant reduction” and the IL6 level result was “significant reduction”. For the same molecule, the Ki67 intensity distribution entry in assay [3] (SW vs vehicle treated cells) is given as “increased Ki67 expression”. In addition, the Ki67 positive cells entry in assay [3] (SW vs vehicle treated explants) is listed as “increase in Ki67 positive cells”. Moreover, the “genes involved in mitochondrial function and metabolism (IPA)” value in the assay with cartilage from aged mice (SW treated aged cartilage) is recorded as “significant upregulation”. In addition, in the assay with cartilage from aged mice (setting [4]), the COX5a expression entry is reported as “significantly upregulated” and the Ndufa9 expression result is “significantly upregulated”. Besides, in the assay on cartilage from aged mice (setting [5]), the “number of downregulated differentially expressed genes” value is reported as 154 and the “number of upregulated differentially expressed genes” value is reported as 147.
